Source: patent US4791215A, “Derivatives of glutamic acid and aspartic acid” (priority 1984, dated 1988)
Read-outs that look alike come from different tables or passages of the source.

Tests used:
[1] = Food consumption on daily oral dosing; format: in vivo, rats
Method: (§1) In order to check the hypothesis that the anti-CCK activity shown by most of the compounds in question may be used to advantage in the treatment of anorexia in man or as an appetite stimulant for farm animals, the following experiment was carried out:
(§2) Male rats having a weight of about 160 g, divided into groups of 10 animals, were used. […]
(§3) The drug, in the form of the sodium salt, was dissolved in water and administered in a volume of 10 ml of H2 O/kg while the control group received an equal volume of the solvent alone.
(§4) The following tables give the average values of the food consumption and the average weight of each group of animals, calculated weekly as well as the Student's t value calculated from the various treated groups and the group of control animals.

[2] = test system: pancreatic adenocarcinoma; format: in vivo, hamsters
Text: (§5) The anti-cholecystokinin effect of the most powerful of the compounds which are the subject of the present invention, that is the compound C-7, on the trophic activity of CCK on normal pancreatic cells and on those of a pancreatic adenocarcinoma is to be studied.
(§6) Male hamsters were inoculated in the cheek pouches with a suspension of 1×10^5 tumoral cells of a pancreatic adenocarcinoma. Five days after the inoculation the animals were divided at random into 4 groups of 10 animals each, that is, a control group, a group of animals treated with 10 μg/kg of CCK-8 three times a day, a group of animals treated with 5 mg/kg i.p. of compound C-7 three times a day, and a fourth group treated simultaneously with the compound C-7 and CCK-8 in the manner described above.
(§7) After 15 days of this treatment, the animals were killed, and the normal pancreas and the inoculated pancreatic tumours in the cheek pouches were collected and weighed. The DNA was extracted and measured according to conventional techniques.
(§8) The results thus obtained are given in Table 13, expressed as mean values (±S.E.)

[3] = test system: CCK-8 induced contraction of guinea pig gall bladder; test: Anti-CCK activity on gall bladder strips in vitro
Procedure, shortened: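 CCK-8 at 10 ng/ml drove isometric contraction of guinea pig gall bladder strips held at 32 °C in oxygenated Krebs (O2/CO2 95:5). Antagonism was measured at graded compound concentrations and reported as ED50, in μg/ml, for 50% inhibition of the contraction.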

[4] = test system: CCK-8 induced contraction of rabbit colon; test: Anti-spastic activity in the colon stimulated by CCK-8; format: in vivo
Method: A much more specific anti-spastic activity, that is adhering much more to a physiological situation, is illustrated by the following experiment.
The abdomen of an anaesthetised rabbit was cut open to show the transverse colon. A small balloon full of water was inserted at the point established and connected to a pressure transducer by means of a polythene cannula filled with water.
The optimum sensitivity was fixed in relation to the physiological conditions and the products were administered through the femoral vein. Contractions were induced by the administration of 100 ng/kg of CCK.

[5] = Body weight on daily oral dosing; format: in vivo, rats
Method: as §1, §2, §3, §4

[6] = test system: normal pancreatic cells; test: Trophic action of CCK-8 on normal pancreas; format: in vivo, hamsters
Text: as §5, §6, §7, §8

[7] = 10 mcg/kg CCK-8 + compound 5 mg/kg, 3 times a day
[8] = compound 5 mg/kg i.p. 3 times per day

With CCCCCN(CCCCC)C(=O)C(CCC(=O)O)NC(=O)c1ccc(Cl)c(Cl)c1 (stereo not shown) [Compound C-7] the “increase in food consumption compared with controls” value ([1]; 0.3 mg/kg daily) was “about 15%”, the food consumption ([1]; 0.3 mg/kg os, week 1) was 176.4 ± 3.70 g/week and the food consumption ([1]; 0.3 mg/kg os, week 2) was 216.8 ± 4.71 g/week. The food consumption ([1]; 0.3 mg/kg os, week 3) was 239.3 ± 4.07 g/week, the food consumption ([1]; 1 mg/kg os, week 1) was 199.6 ± 3.88 g/week and the food consumption ([1]; 1 mg/kg os, week 2) was 230.5 ± 3.09 g/week. The food consumption ([1]; 1 mg/kg os, week 3) was 261.4 ± 4.24 g/week, the food consumption ([1]; 3 mg/kg os, week 1) was 198.4 ± 3.66 g/week and the food consumption ([1]; 3 mg/kg os, week 2) was 244.8 ± 3.09 g/week. The food consumption ([1]; 3 mg/kg os, week 3) was 268.8 ± 4.86 g/week, the “increase in food consumption compared with controls” value ([1]; other doses tested (1, 3 mg/kg daily)) was “about 30%” and the “TUMORAL DNA” value [2, 7] was 0.4 ± 0.02 mg. For the same compound, the “Weight of Pancreatic Carcinoma” value [2, 7] was 109.5 ± 6.2 mg, the “TUMORAL DNA” value [2, 8] was 0.42 ± 0.02 mg and the “Weight of Pancreatic Carcinoma” value [2, 8] was 104 ± 7.5 mg. The “effect on growth of pancreatic adenocarcinoma / CCK-8 actions” value ([2]; hamster, in vivo) was “antagonises both these actions of CCK-8 in a higly significant manner”, the “active concentration relative to that of CCK-8” value ([3]; 50% antagonism of CCK-8) was “about 10 times” and the “ED50 (concentration antagonising 50% of contracting effect of CCK-8)” value ([3]; CCK-8 10 ng/ml) was 0.06 µg/mL. For the same compound, the “effect on CCK-8 stimulated colon” value ([4]; 3 mg/kg iv, single experiments) was -100.0, the ED50 ([4]; Oryctolagus cuniculus, iv, CCK 100 ng/kg) was 1.11 mg/kg and the body weight ([5]; 0.3 mg/kg os, time 0) was 162.1 ± 2.48 g. It also gave a body weight ([5]; 0.3 mg/kg os, week 1) of 201.3 ± 2.7 g, a body weight ([5]; 0.3 mg/kg os, week 2) of 254.5 ± 2.66 g and a body weight ([5]; 0.3 mg/kg os, week 3) of 315.2 ± 2.72 g. The body weight ([5]; 1 mg/kg os, time 0) was 166.0 ± 1.56 g, the body weight ([5]; 1 mg/kg os, week 1) was 214.7 ± 1.93 g and the body weight ([5]; 1 mg/kg os, week 2) was 267.5 ± 2.6 g. The body weight ([5]; 1 mg/kg os, week 3) was 319.8 ± 2.49 g, the body weight ([5]; 3 mg/kg os, time 0) was 166.6 ± 1.73 g and the body weight ([5]; 3 mg/kg os, week 1) was 227.9 ± 1.65 g. For the same compound, the body weight ([5]; 3 mg/kg os, week 2) was 290.9 ± 2.6 g, the body weight ([5]; 3 mg/kg os, week 3) was 349.5 ± 2.82 g and the “weight increase versus control animals” value ([5]; 0.3, 1 and 3 mg/kg os) was “significantly greater weight increase than the control animals”. The Pancreas weight [6, 7] was 374 ± 25.4 mg, the “Pancreatic DNA” value [6, 7] was 1.0 ± 0.08 mg and the Pancreas weight [6, 8] was 336 ± 22.6 mg. The “Pancreatic DNA” value [6, 8] was 0.93 ± 0.09 mg.
